Experimental findings from BindingDB's records for doi:10.1016/j.bmcl.2004.01.047 (University of Huddersfield, 2004) are described below.

Structures are written as SMILES. pKi: −log10 of the molar value.

This assay can be described thus: Binding affinity against metallo-beta-lactamase bacillus cereus(BCII).

By pKi is commonly meant −log10 of the Ki, conventionally taken in molar units. A higher pKi goes with a small Ki. In the case of `CC1CS[C@H](c2nc(O)c(-c3ccccc3)[nH]c2=S)NC1C(=O)O` (stereo partly drawn) [(R)-5-Methyl-2-(6-oxo-5-phenyl-3-thioxo-piperazin-2-yl)-3,6-dihydro-2H-[1,3]thiazine-4-carboxylic acid anion], the negative-log Ki (pKi) was 4.54.
